Residues, ends and D or L forms follow the SMILES beside them.
Target: T1, human Ang4 (Homo sapiens, UniProt Q9Y264)
T1 construct: purchased R&D Systems 964-AN-025/CF
T1 sequence (Q9Y264 25-503): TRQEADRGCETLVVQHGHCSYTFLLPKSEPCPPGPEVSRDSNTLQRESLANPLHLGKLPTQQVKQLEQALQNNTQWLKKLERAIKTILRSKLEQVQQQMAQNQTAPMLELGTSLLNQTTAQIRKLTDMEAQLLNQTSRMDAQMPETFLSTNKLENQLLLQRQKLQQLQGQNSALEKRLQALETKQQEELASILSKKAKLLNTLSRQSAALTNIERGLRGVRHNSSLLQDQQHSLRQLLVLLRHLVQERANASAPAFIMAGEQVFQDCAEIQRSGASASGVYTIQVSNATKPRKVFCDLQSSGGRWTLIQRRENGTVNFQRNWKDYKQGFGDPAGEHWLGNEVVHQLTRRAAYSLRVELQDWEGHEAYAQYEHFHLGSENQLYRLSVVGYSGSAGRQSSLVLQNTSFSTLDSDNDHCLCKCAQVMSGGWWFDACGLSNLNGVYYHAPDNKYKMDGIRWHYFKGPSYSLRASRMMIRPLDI
Test: BIACORE (SPR) binding of peptides to immobilized recombinant Ang4
Conditions: CM5 chip, 10-50 μM peptide
Excerpt: The capability of CGEN-H2 [SEQ ID NO: 1], CGEN-H3 [SEQ ID NO: 2], CGEN-A8 [SEQ ID NO: 3], CGEN-H7 [SEQ ID NO: 4], CGEN-G4 [SEQ ID NO: 5], CGEN-G6 [SEQ ID NO: 6], CGEN-F9 [SEQ ID NO: 7], CGEN-F12 [SEQ ID NO: 8], CGEN-C6-30 [SEQ ID NO: 9], CGEN-All [SEQ ID NO: 10], and CGEN-G2 [SEQ ID NO: 11] to specifically bind to recombinant Ang1, Ang2, and Ang4 was investigated using the BIACORE technology, measuring protein-protein interaction and binding affinity (Wendler et al 2005, Anal Bioanal Chem, 381: 1056-1064). The technology is based on surface plasmon resonance (SPR), an optical phenomenon that enables detection of unlabeled interactants in real time. The SPR-based biosensors can be used in determination of active concentration, screening and characterization in terms of both affinity and kinetics.
Peptide-protein binding was analyzed using surface plasmon resonance. Analysis of the to interaction between CGEN-H2 [SEQ ID NO: 1], CGEN-H3 [SEQ ID NO: 2], CGEN-A8 [SEQ ID NO: 3], CGEN-H7 [SEQ ID NO: 4], CGEN-G4 [SEQ ID NO: 5], CGEN-G6 [SEQ ID NO: 6], CGEN-F9 [SEQ ID NO: 7], CGEN-F12 [SEQ ID NO: 8], CGEN-C6 [SEQ ID NO: 9], CGEN-A11 [SEQ ID NO: 10], and CGEN-G2 [SEQ ID NO: 11] peptides and recombinant human Ang1 carrier-free (R&D Systems, Cat#923-AN-025/CF, Lot#FHW1507031), human Ang2 carrier-free (R&D Systems, Cat#623-AN-025/CF, Lot#BNO0457121), and human Ang4 carrier-free (R&D Systems, Cat#964-AN-025/CF, Lot#ELM025121) was conducted using the BIAcore biosensor (Pharmacia Biosensor, Uppsala, Sweden). The recombinant Ang1, Ang2, and Ang4 were immobilized directly to a CM5 sensor chip. Solutions containing 10-50 μM of CGEN-H2 [SEQ ID NO: 1], CGEN-H3 [SEQ ID NO: 2], CGEN-A8 [SEQ ID NO: 3], CGEN-H7 [SEQ ID NO: 4], CGEN-G4 [SEQ ID NO: 5], CGEN-G6 [SEQ ID NO: 6], CGEN-F9 [SEQ ID NO: 7], CGEN-F12 [SEQ ID NO: 8], CGEN-C6 [SEQ ID NO: 9], CGEN-A11 [SEQ ID NO: 10], and CGEN-G2 [SEQ ID NO: 11] peptides were injected into the sample chamber of the BIACORE device at a rate of […] and the interaction was monitored using surface plasmon resonance.
Solutions containing different concentrations of CGEN-G6 [SEQ ID NO: 6], CGEN-F9 [SEQ ID NO: 7], CGEN-F12 [SEQ ID NO: 8], CGEN-A11 [SEQ ID NO: 10], and CGEN-G2 [SEQ ID NO: 11] peptides (as indicated in Table 2) were injected into the sample chamber of the BIACORE device at a rate of […] and the interaction was monitored using surface plasmon resonance. As a background, the solutions were also injected onto an empty flow cell with no immobilized ligand and the in binding levels achieved were subtracted. Data was analyzed using BIAevaluation software. The affinity constant of the interaction between CGEN-G6 [SEQ ID NO: 6], CGEN-F9 [SEQ ID NO: 7], CGEN-F12 [SEQ ID NO: 8], CGEN-C6 [SEQ ID NO: 9], CGEN-A11 [SEQ ID NO: 10], and CGEN-G2 [SEQ ID NO: 11] and Ang1, Ang2, or Ang4 was determined by direct kinetic analysis. The 1:1 Langmuir binding model was used to fit kinetic data.
Table 2 summarizes results of analysis of CGEN-G6 [SEQ ID NO: 6], CGEN-F9 [SEQ ID NO: 7], CGEN-F12 [SEQ ID NO: 8], CGEN-A11 [SEQ ID NO: 10], and CGEN-G2 [SEQ ID NO: 11] interaction with Ang1, Ang2, or Ang4. Kinetic measurements were done at the indicated concentration range, and they are presented as KD (M). CGEN-F12 [SEQ ID NO: 8] bound to Ang1 and Ang4 with high affinity. The specificity of this binding is not clear.

SMILES | binding to immobilized Ang4 (in words)
CC(=O)N[C@@H](CCC(=O)O)C(=O)N[C@H](C(=O)N[C@@H](Cc1ccccc1)C(=O)N[C@@H](CC(C)C)C(=O)N[C@@H](CO)C(=O)N[C@H](C(=O)N[C@@H](CC(N)=O)C(=O)N[C@@H](CCCCN)C(=O)N[C@@H](CC(C)C)C(=O)N[C@@H](CCC(=O)O)C(=O)N[C@@H](CC(N)=O)C(=O)N[C@@H](CCC(N)=O)C(N)=O)[C@@H](C)O)[C@@H](C)O [CGEN-A11, ETFLSTNKLENQ] (Ac-ETFLSTNKLENQ-NH2) | capable of binding
CC[C@H](C)[C@H](NC(=O)[C@H](C)NC(=O)[C@H](CCCNC(=N)N)NC(=O)[C@H](CCC(=O)O)NC(=O)[C@H](CC(C)C)NC(=O)[C@H](CCCCN)NC(=O)[C@H](CCCCN)NC(=O)[C@H](CC(C)C)NC(=O)[C@H](Cc1c[nH]c2ccccc12)NC(=O)[C@H](CCC(N)=O)NC(=O)[C@@H](NC(=O)[C@H](CC(N)=O)NC(=O)[C@H](CC(N)=O)NC(=O)[C@H](CCC(N)=O)NC(=O)[C@H](CC(C)C)NC(=O)[C@H](C)NC(=O)[C@H](CCC(N)=O)NC(=O)[C@H](CCC(=O)O)NC(=O)[C@H](CC(C)C)NC(=O)[C@H](CCC(N)=O)NC(=O)[C@H](CCCCN)NC(=O)[C@@H](NC(=O)[C@H](CCC(N)=O)NC(=O)[C@H](CCC(N)=O)NC(=O)[C@@H](NC(C)=O)[C@@H](C)O)C(C)C)[C@@H](C)O)C(=O)N[C@@H](CCCCN)C(=O)N[C@H](C(=O)N[C@H](C(=O)N[C@@H](CC(C)C)C(N)=O)[C@@H](C)CC)[C@@H](C)O [CGEN-G2] (Ac-TQQVKQLEQALQNNTQWLKKLERAIKTIL-NH2) | capable of binding
CSCC[C@H](NC(=O)[C@H](CC(C)C)NC(=O)[C@H](CC(=O)O)NC(C)=O)C(=O)N[C@@H](CCC(=O)O)C(=O)N[C@H](C(=O)N[C@H](C(=O)N[C@@H](CC(N)=O)C(=O)N[C@@H](CC(N)=O)C(=O)N[C@@H](CC(C)C)C(=O)N[C@@H](CC(C)C)C(=O)N[C@H](C(=O)N[C@@H](CCSC)C(=O)N[C@@H](CCSC)C(=O)N[C@@H](CO)C(=O)N[C@H](C(=O)N[C@@H](CO)C(=O)N[C@@H](CC(N)=O)C(=O)N[C@@H](CO)C(=O)N[C@@H](C)C(=O)N[C@@H](CCCCN)C(=O)N[C@@H](CC(=O)O)C(N)=O)[C@@H](C)O)[C@@H](C)O)C(C)C)[C@@H](C)O [CGEN-G6] (Ac-DLMETVNNLLTMMSTSNSAKD-NH2) | capable of binding

From patent US9255132B2, “Angiopoietin derived peptides” (Compugen Ltd., priority 2008, dated 2016)
